Tests used:
[1] = Cytotoxicity assay (Alamar blue), COS-7; type: cell-based, Monkey; details: chlorocebus aethiops, COS-7 cells; COS7, 24 h; read-out: In vitro cytotoxicity CC50 ± SD COS7
Description: Cell toxicity was determined using Alamar blue, as previously described (McMillian et al., 2002). COS-7 cells were seeded as 7000 cells per well in black wall clear bottom 96-well plates in DMEM medium (Life Technologies Australia) with 10% FBS. HepG2 and HEK293 cell lines, from ATCC, were seeded as 5000 cells per well in black wall clear bottom 384-well cell culture plates in DMEM with 1% FBS. Cells were cultured for 24 h at 37° C., 5% CO2. A serial dilution of compounds was added, with a final DMSO concentration adjusted to 0.5% v/v. Cells were incubated for another 24 h. 1 Triton X-100 was used as negative control, and 0.5% DMSO as positive control. 5 μM Alamar blue was added to each well and fluorescence was measured (λexc=560 nm, λem=590 nm) after 2 h incubation at 37° C. Data were analysed using Prism software.

[2] = target: SOX18 (Mus musculus (Mouse), UniProt P43680); assay: Cell-based luciferase SOX18-dependent transactivation (Vcam1 promoter) in COS-7; details: COS7, 24 h
Description: Monkey kidney fibroblast-like cells (COS-7) were cultured at 37° C., 5% CO2 in DMEM (Life technologies, 11995) with FBS, sodium pyruvate, L-glutamine, penicillin, streptomycin, non-essential amino acids and HEPES. Cells were grown in 96-well plates to 80% confluency, and transfected with mouse plasmids pGL2 Vcam 1 promoter construct (VC1889) and pSG5 Sox18, using X-tremeGENE 9 DNA transfection reagent (Roche, 06365787001) (Hosking et al., 2004, Duong et al., 2014). After 4-6 h transfection, cells were incubated with compounds in 0.5% FBS medium for another 24 h, before lysis and luciferase assay (Perkin Elmer, 6016711).

[3] = target: full-length mouse SOX18 (Mus musculus (Mouse), UniProt P43680); assay: FP DNA-binding competition assay, full-length SOX18; details: full-length mouse SOX18, Prox1-DNA probe, read-out: FP IC50 ± SD
Description: Full-length mouse SOX18. A N-terminally tagged mouse HIS-GST-SOX18 was recombinantly expressed in Sf9 cells, purified on GST resin (GE Healthcare Life Sciences, Sweden) and eluted in Tris buffer (50 mM Tris, 500 mM NaCl, 10 mM reduced glutathione, pH 8.0). cDNA clone of mouse Sox18 was PCR amplified and cloned into the pOPIN-GST vector, to generate N-terminally tagged HIS-GST-SOX18. A sequence verified construct was co-transfected with flashBACULTRA (Oxford Expression Technologies, Oxford, United Kingdom) baculovirus DNA onto Spodoptera frugiperda Sf9 cells to obtain recombinantly expressed HIS-GST-SOX18. High Five cells (BTI-TN-5B1-4) in Sf-900™ II serum-free medium were infected at cell density of 1.5×10^6 cells/mL with a multiplicity of infection (MOI) of 5 PFU/cell, and incubated at 21° C. for 144 h before harvest. The cell pellet from 100 mL of expression culture was resuspended in 30 mL of phosphate lysis buffer (50 mM sodium phosphate, 500 mM sodium chloride, 1% Triton X-100, 2 mM magnesium chloride, one tablet of cOmplete Protease Inhibitor Cocktail, pH 7.5) and sonicated on ice for 20 s. The cell lysate was centrifuged at 17,000×g for 40 min at 4° C. Supernatant was incubated with Benzonase Nuclease (Merck Millipore) for 1 h at room temperature for DNA degradation, before being mixed with 500 μL GST resin (GE Healthcare Life Sciences, Sweden) and incubated on a rotating wheel at room temperature for 1 h. The sample was centrifuged at 500×g for 1 min to remove unbound protein in the supernatant. The resin was further washed with 50 resin volumes (RV) wash buffer (50 mM sodium phosphate, 500 mM NaCl, pH 7.5), with unbound protein removed by centrifugation as above. Bound protein was eluted from the resin with 3×1 RV elution buffer (50 mM Tris, 500 mM NaCl, 10 mM reduced glutathione, pH 8.0), collecting the supernatant by centrifugation as above.
The DNA-binding competition assay was performed in black 384-well plates, with mouse full length SOX18, or SOX-HMG fragments. All experiments were performed using a fluorescently-labelled Prox1-DNA element. Controls consisted of free labelled DNA (low FP milli-Polarization index, mP), labelled DNA in presence of protein (negative control, high mP), and labelled DNA and protein in presence of competing excess of unlabelled DNA (positive control, low mP)
The DNA-binding competition assay was performed in 25 uL, in black 384-well plates, using either 30 mM HEPES (N-2-Hydroxyethylpiperazine-N′-2-Ethanesulfonic Acid) (pH 7.5, with 100 mM KCl, 40 mM NaCl, 10 mM NH4OAc, […], 2 mM MgCl2, 0.5 mM EDTA, 0.01% NP-40) for mouse full length SOX18, or Tris-NaCl (10 mM Tris pH 8.0 and 100 mM NaCl) for SOX-HMG fragments. All experiments were performed using a 40 bp double-stranded Prox1-DNA element with 5′ fluorescein amidite (FAM) label (Sigma Proligo or InVitrogen). Optimum binding levels were obtained at 200 nM of mouse full length SOX18 and 60 nM of SOX-HMG fragment, in presence of 5 nM labelled DNA. Controls consisted of free labelled DNA (low FP milli-Polarization index, mP), labelled DNA in presence of protein (negative control, high mP), and labelled DNA and protein in presence of 400 time competing excess of unlabelled DNA (positive control, low mP). Depending on compound, final DMSO concentrations ranged from 2 to 3.33% v/v. After mixing protein, DNA probe and compound, plates were sealed and briskly agitated in the dark for 5 minutes at room temperature, 10 minutes at 37° C., and 30 minutes at room temperature, before reading fluorescence polarization on a Tecan M1000Pro (λexc=485 nm, λem=525 nm). All experiments were performed in triplicates.

[4] = Critical micelle concentration (CMC) assay; type: physicochemical; details: threshold concentration of micelle formation in 200 mM NaCl or FP buffer
Description: Critical micelle concentration was determined based on the incorporation of fluorescent 1,6-diphenyl-1,3,5-hexatriene (DPH) into micelles (Chattopadhyay and London, 1984). Small molecules and positive controls (neutral detergent Triton X100 and anionic detergent SDS) were cascade diluted in low binding 96-well plates from 1000 μM to 0.1 μM. Dilutions were performed in 200 mM NaCl or FP buffer. DPH was supplemented at 5 μM into black 384-well plates. Fluoresence intensity (λexc=360 nm, λem=430 nm) was measured following a 30-min incubation at room temperature, to graphically estimate CMC transition.

[5] = Cytotoxicity assay (Alamar blue), HEK293; type: cell-based; details: human, HEK293 cells; HEK293, 24 h
Procedure, shortened: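 COS-7 cells in DMEM with 10% FBS; HepG2 and HEK293 in DMEM with 1% FBS. After 24 h plating, serial compound dilutions (0.5% DMSO final) added for 24 h at 37° C. Viability from Alamar blue 5 μM, fluorescence 560/590 nm read after 2 h.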

[6] = Cytotoxicity assay (Alamar blue), HepG2; type: cell-based; details: human, HepG2 cells; HepG2, 24 h

SOX18, sequence (P43680 whole entry): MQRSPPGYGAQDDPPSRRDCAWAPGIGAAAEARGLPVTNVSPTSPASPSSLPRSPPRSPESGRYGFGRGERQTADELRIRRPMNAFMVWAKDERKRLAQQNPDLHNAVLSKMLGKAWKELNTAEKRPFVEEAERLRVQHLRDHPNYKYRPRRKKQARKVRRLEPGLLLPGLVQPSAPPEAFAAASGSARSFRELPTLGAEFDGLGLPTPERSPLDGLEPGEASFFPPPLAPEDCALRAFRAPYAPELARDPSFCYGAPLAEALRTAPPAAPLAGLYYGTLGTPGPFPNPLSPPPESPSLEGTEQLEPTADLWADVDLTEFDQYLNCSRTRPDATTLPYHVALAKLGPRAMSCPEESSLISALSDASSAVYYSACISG
full-length mouse SOX18, sequence (P43680 whole entry): as above

| IC50 ([2]; read-out: In vitro efficacy in cell IC50 ± SD COS7 (Luc)) [µM] | CMC [4] [µM] | Structure (SMILES) | CC50 at 24 h [1] [µM] | In vitro efficacy in cell IC50 ± SD COS7 (Luc) [2] | IC50 [3] [µM] | CC50 at 24 h [5] [µM] | CC50 at 24 h [6] [µM] |
| --- | --- | --- | --- | --- | --- | --- | --- |
|  |  | O=C(O)c1ccccc1Nc1cccc(C(F)(F)F)c1 [Flufenamic acid, reference compound] | 65 ± 2.7 | cytotoxicity was reached before any concentration-dependent SOX18 inhibition could be observed | 220 ± 68.6 |  |  |
| 21 ± 14 | >1000 | O=C(O)c1c(O)cccc1COCCc1ccccc1 [Sm5] |  |  | 1100 |  |  |
|  |  | COc1cc(C)cc(/C=C/c2ccc3ccccc3c2)c1C(=O)O [Sm34, (E)-2-methoxy-4-methyl-6-(2-(naphthalen-2-yl)vinyl)benzoic acid] |  |  |  | > 100 | > 100 |
|  |  | Oc1cc(CCc2ccccc2)cc(O)c1O [Sm40, 5-phenethylbenzene-1,2,3-triol] |  |  |  | > 100 | > 100 |

Reference: patent US20240002326A1, “COMPOUNDS AND USE THEREOF IN METHODS OF TREATMENT” (The University of Queensland, priority 2016, published 2024)
